Assay results published in patent US7312179B2, “Cyclopropyl-thienyl-carboxamide as fungicides” (Syngenta Crop Protection, Inc., priority 2002, dated 2007).

- melting point: 76 to 79 °C
SMILES: Cn1cc(C(=O)Nc2ccsc2C2CC2C2CC2)c(C(F)F)n1 (stereo not shown) [Compound 4.34, 3-difluoromethyl-1-methyl-1H-pyrazole-4-carboxylic acid (2-bicyclo-propyl-2-yl-thiophen-3-yl)amide]
